According to patent publication US11000033B2, “Ketone or oxime compound, and herbicide” (NISSAN CHEMICAL CORPORATION, priority 2014, dated 2021):

How the values were obtained:
Assay type in all cases: in vivo
Alopecurus myosuroides = assay: Test Example 5: herbicidal effect by foliage application, plastic box (symbol J); conditions: 320 g/ha, 3 weeks after application
Procedure, shortened: (§1)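 Effect is rated 3 weeks after a foliar spray of water-diluted emulsion concentrate at a predetermined herbicide amount. Plants had grown 14 days in a 25° C. to 30° C. greenhouse from seed in sterilized diluvial soil.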

corn [1] = assay: Test Example 4: effect on crop by soil treatment (symbol c); conditions: 320 g/ha
Procedure, shortened: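 Grown at 25° C. to 30° C. in a greenhouse, the crops came from seed sown spot-wise in sterilized diluvial soil under roughly 1.5 cm of covering soil.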

corn [2] = assay: Test Example 5: effect on crop by foliage application, plastic box (symbol c); conditions: 320 g/ha, 3 weeks after application
Procedure, shortened: (§2)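 Foliage-application test plants come from spot sowing in sterilized diluvial soil under a soil layer of about 1.5 cm, grown at 25° C. to 30° C. in a greenhouse.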

Digitaria ciliaris = assay: Test Example 4: herbicidal effect by soil treatment (symbol F); conditions: 320 g/ha
Procedure, shortened: (§3)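 Seeds were sown in sterilized diluvial soil, covered with about 1.5 cm of soil, and the soil surface was sprayed with a water-diluted emulsion of the compound at a predetermined rate. Plants grew in a greenhouse at 25° C. to 30° C.; effects were scored visually 3 weeks after application.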

soybean = assay: Test Example 5: effect on crop by foliage application, plastic box (symbol d); conditions: 320 g/ha, 3 weeks after application
Procedure, shortened: as §2

Leptochloa chinensis = assay: Test Example 3: herbicidal effect by foliage application, Wagner pot (symbol D); conditions: application herbicide amount 320 g/ha
Procedure, shortened: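 In a shallow-flooded alluvial soil system held at 25–30 °C, plants including rice grew for 14 days and were then sprayed over the foliage with emulsion diluted to a fixed herbicide amount. Visual rating followed at 3 weeks.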

rice = assay: Test Example 4: effect on crop by soil treatment (symbol b); conditions: 320 g/ha
Procedure, shortened: (§4)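 Greenhouse culture at 25° C. to 30° C. followed sowing of seed in spots on sterilized diluvial soil with a soil cover close to 1.5 cm thick.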

Avena fatua = assay: Test Example 4: herbicidal effect by soil treatment (symbol I); conditions: 320 g/ha
Procedure, shortened: as §3

[3] = test system: Echinochloa crus-galli var. crus-galli; assay: Test Example 5: herbicidal effect by foliage application, plastic box (symbol H); conditions: 320 g/ha, 3 weeks after application
Procedure, shortened: as §1

rapeseed = assay: Test Example 4: effect on crop by soil treatment (symbol g); conditions: 320 g/ha
Procedure, shortened: as §4

Monochoria vaginalis = assay: Test Example 2: herbicidal activity, application during weed generation in submerged conditions (symbol C); conditions: Table 23; application herbicide amount 320 g/ha; grade 0-5 by criteria of Test Example 1
Procedure, shortened: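 Compound was applied as a water-diluted emulsion into the standing water of flooded pots (4 cm) once co-sown weeds reached one to two leaves. Greenhouse temperature was 25° C. to 30° C., soil was alluvial, and each species was rated visually after 3 weeks.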

Row | SMILES | J: Alopecurus myosuroides, herbicidal effect (criteria 0-5) (Alopecurus myosuroides) | c: corn, effect grade on crop (corn [1]) | c: corn, effect on crop (criteria 0-5) (corn [2]) | F: Digitaria ciliaris, herbicidal effect grade (Digitaria ciliaris) | d: soybean, effect on crop (criteria 0-5) (soybean) | herbicidal effect on D (Leptochloa chinensis), grade 0-5 (Leptochloa chinensis) | b: directly sowed rice plant, effect grade on crop (rice) | I: Avena fatua, herbicidal effect grade (Avena fatua) | H: Echinochloa crus-galli var. crus-galli, herbicidal effect (criteria 0-5) [3] | g: rapeseed, effect grade on crop (rapeseed) | Herbicidal effect grade, C: Monochoria vaginalis (Monochoria vaginalis)
1 | CON=C(C)CC1CC(OC(=O)c2nsc(Cl)c2Cl)=C(c2c(C)cc(C)cc2C)C1=O (stereo not drawn) [1-099] | 5 (Herbicidal ratio of 90% or more (almost completely withered)) | 5 (Herbicidal ratio of 90% or more (almost completely withered)) | 5 (Herbicidal ratio of 90% or more (almost completely withered)) | 5 (Herbicidal ratio of 90% or more (almost completely withered)) | 4 (Herbicidal ratio of 70% or higher and lower than 90%) | 5 (Herbicidal ratio of 90% or more (almost completely withered)) | 5 (Herbicidal ratio of 90% or more (almost completely withered)) | 2 (Herbicidal ratio of 20% or higher and lower than 40%) | 5 (Herbicidal ratio of 90% or more (almost completely withered)) | 5 (Herbicidal ratio of 90% or more (almost completely withered)) | 2 (Herbicidal ratio of 20% or higher and lower than 40%)
2 | CON=C(C)CC1CC(OC(=O)c2cc(C)on2)=C(c2c(C)cc(C)cc2C)C1=O (stereo not drawn) [1-100] | 5 (Herbicidal ratio of 90% or more (almost completely withered)) | 5 (Herbicidal ratio of 90% or more (almost completely withered)) | 5 (Herbicidal ratio of 90% or more (almost completely withered)) | 5 (Herbicidal ratio of 90% or more (almost completely withered)) | 3 (Herbicidal ratio of 40% or higher and lower than 70%) | 5 (Herbicidal ratio of 90% or more (almost completely withered)) | 5 (Herbicidal ratio of 90% or more (almost completely withered)) | 3 (Herbicidal ratio of 40% or higher and lower than 70%) | 5 (Herbicidal ratio of 90% or more (almost completely withered)) | 3 (Herbicidal ratio of 40% or higher and lower than 70%) | 3 (Herbicidal ratio of 40% or higher and lower than 70%)
3 | CON=C(C)CC1CC(OC(=O)c2nc(C)sc2C)=C(c2c(C)cc(C)cc2C)C1=O (stereo not drawn) [1-101] | 5 (Herbicidal ratio of 90% or more (almost completely withered)) | 5 (Herbicidal ratio of 90% or more (almost completely withered)) | 5 (Herbicidal ratio of 90% or more (almost completely withered)) | 5 (Herbicidal ratio of 90% or more (almost completely withered)) | 3 (Herbicidal ratio of 40% or higher and lower than 70%) | 5 (Herbicidal ratio of 90% or more (almost completely withered)) | 5 (Herbicidal ratio of 90% or more (almost completely withered)) | 3 (Herbicidal ratio of 40% or higher and lower than 70%) | 5 (Herbicidal ratio of 90% or more (almost completely withered)) | 5 (Herbicidal ratio of 90% or more (almost completely withered)) | 2 (Herbicidal ratio of 20% or higher and lower than 40%)
4 | CC(CC1CC(O)=C(c2c(C)cc(C)cc2C)C1=O)=NOCC#N (stereo not drawn) [1-102] | 5 (Herbicidal ratio of 90% or more (almost completely withered)) | 0 (Herbicidal ratio of 5% or lower (almost no effect)) | 5 (Herbicidal ratio of 90% or more (almost completely withered)) | 4 (Herbicidal ratio of 70% or higher and lower than 90%) | 0 (Herbicidal ratio of 5% or lower (almost no effect)) | 5 (Herbicidal ratio of 90% or more (almost completely withered)) | 5 (Herbicidal ratio of 90% or more (almost completely withered)) | 0 (Herbicidal ratio of 5% or lower (almost no effect)) | 5 (Herbicidal ratio of 90% or more (almost completely withered)) | 0 (Herbicidal ratio of 5% or lower (almost no effect)) | 2 (Herbicidal ratio of 20% or higher and lower than 40%)
5 | CON=C(C)CC1CC(OC(=O)c2cnoc2C2CC2)=C(c2c(C)cc(C)cc2C)C1=O (stereo not drawn) [1-103] | 5 (Herbicidal ratio of 90% or more (almost completely withered)) | 5 (Herbicidal ratio of 90% or more (almost completely withered)) | 5 (Herbicidal ratio of 90% or more (almost completely withered)) | 5 (Herbicidal ratio of 90% or more (almost completely withered)) | 3 (Herbicidal ratio of 40% or higher and lower than 70%) | 5 (Herbicidal ratio of 90% or more (almost completely withered)) | 5 (Herbicidal ratio of 90% or more (almost completely withered)) | 3 (Herbicidal ratio of 40% or higher and lower than 70%) | 5 (Herbicidal ratio of 90% or more (almost completely withered)) | 3 (Herbicidal ratio of 40% or higher and lower than 70%) | 0 (Herbicidal ratio of 5% or lower (almost no effect))
6 | CON=C(C)CC1CC(OC(=O)N2CCOCC2)=C(c2c(C)cc(C)cc2C)C1=O (stereo not drawn) [1-104] | 5 (Herbicidal ratio of 90% or more (almost completely withered)) | 1 (Herbicidal ratio of 5% or higher and lower than 20%) | 4 (Herbicidal ratio of 70% or higher and lower than 90%) | 5 (Herbicidal ratio of 90% or more (almost completely withered)) | 1 (Herbicidal ratio of 5% or higher and lower than 20%) | 5 (Herbicidal ratio of 90% or more (almost completely withered)) | 5 (Herbicidal ratio of 90% or more (almost completely withered)) | 3 (Herbicidal ratio of 40% or higher and lower than 70%) | 5 (Herbicidal ratio of 90% or more (almost completely withered)) | 2 (Herbicidal ratio of 20% or higher and lower than 40%) | 0 (Herbicidal ratio of 5% or lower (almost no effect))
